What all share (type): cell-based
One assay has as its target T1, human TLR8 (Homo sapiens, UniProt Q9NR97).
T1 construct: host or cells: HEK293
T1 sequence (Q9NR97 27-1041): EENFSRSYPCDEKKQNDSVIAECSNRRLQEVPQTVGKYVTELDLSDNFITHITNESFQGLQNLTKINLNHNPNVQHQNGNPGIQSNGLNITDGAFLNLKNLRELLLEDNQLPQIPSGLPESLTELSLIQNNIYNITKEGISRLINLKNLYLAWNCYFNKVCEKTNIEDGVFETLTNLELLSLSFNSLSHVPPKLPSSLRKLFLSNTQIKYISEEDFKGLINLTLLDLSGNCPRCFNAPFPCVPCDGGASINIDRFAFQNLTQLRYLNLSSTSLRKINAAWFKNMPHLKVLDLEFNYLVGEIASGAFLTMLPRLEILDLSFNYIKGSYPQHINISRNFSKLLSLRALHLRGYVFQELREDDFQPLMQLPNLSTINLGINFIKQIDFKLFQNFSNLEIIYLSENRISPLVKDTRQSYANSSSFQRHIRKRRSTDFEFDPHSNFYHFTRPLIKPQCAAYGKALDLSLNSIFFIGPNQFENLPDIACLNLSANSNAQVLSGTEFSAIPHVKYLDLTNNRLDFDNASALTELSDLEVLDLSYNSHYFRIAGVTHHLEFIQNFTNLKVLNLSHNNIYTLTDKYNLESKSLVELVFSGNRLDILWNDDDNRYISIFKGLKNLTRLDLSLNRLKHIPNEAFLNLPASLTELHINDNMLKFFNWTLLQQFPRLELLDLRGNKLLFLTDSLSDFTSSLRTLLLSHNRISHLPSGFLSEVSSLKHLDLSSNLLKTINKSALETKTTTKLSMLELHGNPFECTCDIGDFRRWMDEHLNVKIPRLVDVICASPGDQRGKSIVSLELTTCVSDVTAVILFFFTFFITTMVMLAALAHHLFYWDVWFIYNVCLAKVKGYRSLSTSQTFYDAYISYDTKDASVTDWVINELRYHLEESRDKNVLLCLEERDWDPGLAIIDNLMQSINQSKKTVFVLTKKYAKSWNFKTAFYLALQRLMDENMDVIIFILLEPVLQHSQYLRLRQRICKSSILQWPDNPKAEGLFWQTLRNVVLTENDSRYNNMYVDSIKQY
As to the kind of experiment: hTLR8 agonist reporter assay in HEK293 cells (NFκB-SEAP). Conditions: for hTLR8 agonist activity, in words: Table 3, FIG. 6; for EC50: read-out: hTLR8 ED50. How it is done:
(§1) Assay for hTLR7 and hTLR8 Agonist Activity in HEK-293 Cells
(§2) Determination of TLR agonist activity was performed using the HEK293 […]. This assay measures TLR7 and TLR8 selectivity and potency of the compounds tested. HEK293 cells expressing human TLR7 or TLR8 and NFκB responsive Secreted Embryonic Alkaline Phosphatase (SEAP) reporter gene were obtained from InvivoGen (San Diego, Calif.). These cells were maintained in culture media of Dulbecco's Modified Eagle Medium (DMEM) (Invitrogen, Grand Island, N.Y.), 10% Fetal Bovine Serum (FBS) (Sigma, St. Louis, Mo.) and selection antibiotics (Invitrogen, and Invivogen). HEK293 stably transfected with human TLR7 (hTLR7) or human TLR8 (hTLR8) were stimulated for 24 h with aqueous formulations of test compounds and culture supernatants were analyzed for NFκB activation using the colorimetric SEAP detection kit QuantBlue (InvivoGen).

The next assay deals with T2, human TLR7 (Homo sapiens, UniProt Q9NYK1).
T2 construct: host or cells: HEK293
T2 sequence (Q9NYK1 27-1049): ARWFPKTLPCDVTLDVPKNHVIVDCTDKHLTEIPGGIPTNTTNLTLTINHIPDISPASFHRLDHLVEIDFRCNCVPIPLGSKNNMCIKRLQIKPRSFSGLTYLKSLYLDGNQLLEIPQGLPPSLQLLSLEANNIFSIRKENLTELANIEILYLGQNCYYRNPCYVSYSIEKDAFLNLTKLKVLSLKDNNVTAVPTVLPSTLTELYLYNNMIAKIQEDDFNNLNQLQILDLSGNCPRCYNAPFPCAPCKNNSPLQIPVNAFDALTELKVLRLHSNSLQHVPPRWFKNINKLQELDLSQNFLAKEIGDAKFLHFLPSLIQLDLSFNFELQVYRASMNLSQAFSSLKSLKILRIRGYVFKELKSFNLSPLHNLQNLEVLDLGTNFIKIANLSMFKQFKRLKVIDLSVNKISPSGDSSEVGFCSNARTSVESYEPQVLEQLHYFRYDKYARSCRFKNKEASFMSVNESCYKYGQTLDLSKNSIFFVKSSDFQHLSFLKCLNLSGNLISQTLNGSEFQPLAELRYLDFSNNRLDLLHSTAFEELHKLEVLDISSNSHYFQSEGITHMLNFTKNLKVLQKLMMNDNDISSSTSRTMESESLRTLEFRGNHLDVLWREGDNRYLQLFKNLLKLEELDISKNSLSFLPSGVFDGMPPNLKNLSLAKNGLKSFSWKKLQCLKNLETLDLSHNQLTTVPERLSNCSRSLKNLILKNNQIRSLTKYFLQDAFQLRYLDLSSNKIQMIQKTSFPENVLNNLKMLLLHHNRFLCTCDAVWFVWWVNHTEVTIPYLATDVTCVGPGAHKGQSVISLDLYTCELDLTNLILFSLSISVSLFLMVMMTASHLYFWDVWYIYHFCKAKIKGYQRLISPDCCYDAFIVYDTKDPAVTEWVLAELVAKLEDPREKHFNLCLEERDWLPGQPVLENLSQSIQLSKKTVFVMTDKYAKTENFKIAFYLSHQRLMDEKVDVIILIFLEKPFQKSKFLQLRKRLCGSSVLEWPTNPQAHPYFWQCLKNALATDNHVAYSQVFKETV
Description: hTLR7 agonist reporter assay in HEK293 cells (NFκB-SEAP). Conditions: for hTLR7 agonist activity, in words: Table 3, FIG. 5; for EC50: read-out: hTLR7 ED50; for hTLR7/8 ratio: hTLR7 ED50 over hTLR8 ED50. On the procedure: as §1, §2
For orientation: In a reporter assay the amount or activity of a reporter protein is the signal.

Assay [1] deals with human peripheral blood mononuclear cells (hPBMCs). As to the kind of experiment: IFN-α induction in hPBMCs. Conditions: 24 h. How it is done:
(§3) Assays to Measure Cytokine Induction
(§4) Test compounds were evaluated for cytokine induction in human peripheral blood mononuclear cells (hPBMCs).
(§5) Primary human PBMCs were isolated from fresh blood from healthy donors via Ficoll gradient separation and plated at 0.5×10^6 cells/well in 96-well tissue culture plates (RPMI-1640 plus 10% FBS). hPBMCs were maintained with RPMI-1640 culture media (Invitrogen, Grand Island, N.Y.), antibiotics (Invitrogen) and 10% FBS (Sigma).
(§6) Incubation and Assays for IFN-γ, IFN-α and TNF-α
(§7) hPBMCs were stimulated for 24 h with aqueous formulations of test compounds. Culture supernatants were analyzed for TNF-α and IFN-γ induction using multiplex kits (FluoroKine multiplex kits from R&D Systems, Minneapolis, Minn.) and for IFN-α induction using human IFN-α VeriKine ELISA kit (Pestka Biomedical Laboratories, Inc., Piscataway, N.J.).

Assay [2] shares this test system. Description: TNF-α induction in hPBMCs. Conditions: 24 h. On the procedure: as §3, §4, §5, §6, §7
Assay [3] has the same test system. Description: IFN-γ induction in hPBMCs. Conditions: 24 h. How it is done:
as §3, §4, §5, §6, §7

Where [4] appears, read: Table 3, FIG. 6, another occasion, * = only very low levels of NFKB activation were detected.
[5] abbreviates: Table 3, FIG. 5, another occasion, * = only very low levels of NFKB activation were detected.
Where [6] appears, read: Table 4, FIG. 8, another occasion.
The mark [7] stands for this setting: Table 4, FIG. 7, another occasion.
The mark [8] stands for this setting: Table 1, FIG. 2, 24 h stimulation, aqueous formulations.
[9] abbreviates: Table 2, FIG. 4, another occasion, * = only very low levels of NFKB activation were detected.
[10] abbreviates: Table 1, FIG. 1, 24 h stimulation, aqueous formulations.
Where [11] appears, read: Table 2, FIG. 3, another occasion, * = only very low levels of NFKB activation were detected.

Where two headings read alike, the source gives them in different places.

In the case of `CCCCc1nc2c(N)nc3cc(OCCOCCOCCO)ccc3c2n1CCO` [Comparative Example 5], the “hTLR8 agonist activity, in words” value on human TLR8 is “quite weak agonist of hTLR7 and hTLR8”. Besides, the EC50 at human TLR8 (setting [4]) came to 16.3 µM; on human TLR7 (setting [5]), 13.2 µM. The “hTLR7 agonist activity, in words” value at human TLR7 is “quite weak agonist of hTLR7 and hTLR8”. On human TLR7 (Table 3), the hTLR7/8 ratio was 0.8. Moreover, the “IFN-α induction, in words” value in assay [1] (FIG. 14, another occasion) was “did not induce IFN-α”. Besides, in assay [2] (FIG. 15, another occasion), the “TNF-α induction, in words” value is given as “effective but less potent”.
`CCCCCCCCCCCCCCCC(=O)OC[C@H](COCCOCCOCCOP(=O)(O)OCCOc1ccc2c(c1)nc(N)c1nc(CCCC)n(CCO)c12)OC(=O)CCCCCCCCCCCCCCC` [Example 2]: the figures for the EC50 on human TLR8 (setting [6]) and on human TLR7 (setting [7]) were 0.81 µM and 6.1 µM, respectively.
As for `CCCCCCCC/C=C\CCCCCCCC(=O)OC[C@H](COP(=O)(O)OCCn1c(CCCC)nc2c(N)nc3ccccc3c21)OC(=O)CCCCCCC/C=C\CCCCCCCC` [Comparative Example 2, reference compound], the EC50 came to 26 µM at human TLR8 (setting [8]), 39.2 µM on human TLR8 (setting [9]), 34.6 µM on human TLR7 (setting [10]) and 55.4 µM on human TLR7 (setting [11]). Besides, the values for the hTLR7/8 ratio on human TLR7 (Table 1) and at human TLR7 (Table 2) were 1.3 and 1.4, respectively. Besides, the “IFN-γ induction, in words” value in assay [3] (FIG. 9) is reported as “did not induce any IFN-γ”; in assay [3] (FIG. 11, another occasion) it was “did not induce IFN-γ”. The “TNF-α induction, in words” value in assay [2] (FIG. 13) was “not significantly effective at inducing TNF-α”.
In the case of `CCCCCCCC/C=C\CCCCCCCC(=O)OC[C@H](COP(=O)(O)OCCOCCOCCOc1ccc2c(c1)nc(N)c1nc(CCCC)n(CCO)c12)OC(=O)CCCCCCC/C=C\CCCCCCCC` [Example 6], at human TLR8, the “hTLR8 agonist activity, in words” value is “reasonably potent agonist of hTLR8”. In addition, the EC50 on human TLR8 (setting [4]) amounted to 5.8 µM; at human TLR7 (setting [5]), 8.7 µM. In addition, the “hTLR7 agonist activity, in words” value on human TLR7 is “very weak agonist of hTLR7”. The hTLR7/8 ratio at human TLR7 (Table 3) is given as 1.5. In assay [1] (FIG. 14, another occasion), the “IFN-α induction, in words” value is “potent, but less so than Example 1”. Also, the “TNF-α induction, in words” value in assay [2] (FIG. 15, another occasion) is “effective but less potent”.
With `CCCCc1nc2c(N)nc3cc(OCCCCO)ccc3c2n1CCO` [Comparative Example 4], the “hTLR8 agonist activity, in words” value at human TLR8 was “good agonist of hTLR7 and hTLR8”. Moreover, the EC50 on human TLR8 (setting [4]) was found to be 2.2 µM; on human TLR7 (setting [5]) it was 1.6 µM. The “hTLR7 agonist activity, in words” value on human TLR7 was “good agonist of hTLR7 and hTLR8”. The hTLR7/8 ratio at human TLR7 (Table 3) is reported as 0.7. In addition, the “IFN-α induction, in words” value in assay [1] (FIG. 14, another occasion) was “did not induce IFN-α”. For the same molecule, the “TNF-α induction, in words” value in assay [2] (FIG. 15, another occasion) is “effective at inducing TNF-α”.
Regarding `CCCCCCCC/C=C\CCCCCCCC(=O)OC[C@H](COP(=O)(O)OCCCCOc1ccc2c(c1)nc(N)c1nc(CCCC)n(CCO)c12)OC(=O)CCCCCCC/C=C\CCCCCCCC` [Example 5], the “hTLR8 agonist activity, in words” value at human TLR8 is “very weak agonist of hTLR7 or hTLR8”. For the same molecule, the EC50 on human TLR8 (setting [4]) is 6.6 µM; on human TLR7 (setting [5]), 10.5 µM. On human TLR7, the “hTLR7 agonist activity, in words” value is listed as “very weak agonist of hTLR7 or hTLR8”. At human TLR7 (Table 3), the hTLR7/8 ratio came to 1.6. In addition, the “IFN-α induction, in words” value in assay [1] (FIG. 14, another occasion) is “potent but at higher dose”. In assay [2] (FIG. 15, another occasion), the “TNF-α induction, in words” value is on record as “very weak effect”.
Consider `CCCCc1nc2c(N)nc3cc(OCCO)ccc3c2n1CCO` [Comparative Example 3], for which the EC50 on human TLR8 (setting [8]) was found to be 0.1 µM; at human TLR8 (setting [9]), 0.8 µM; at human TLR8 (setting [4]) it was 1.1 µM; on human TLR7 (setting [10]), 1.56 µM; on human TLR7 (setting [11]), 2.4 µM; on human TLR7 (setting [5]) it was 2.2 µM. The results for the hTLR7/8 ratio on human TLR7 (Table 1), at human TLR7 (Table 2) and on human TLR7 (Table 3) were 15.5, 2.9 and 1.9, respectively. Moreover, the “IFN-α induction, in words” value in assay [1] (FIG. 10) is “equipotent at inducing IFN-α and these were more potent than Comparative Example 1 and Comparative Example 2 in this assay at a lower dose”; in assay [1] (FIG. 14, another occasion) it was “Weaker effects”. The “TNF-α induction, in words” value was “potent at inducing TNF-α” in assay [2] (FIG. 13) and “effective at inducing TNF-α” in assay [2] (FIG. 15, another occasion).
`CCCCc1nc2c(N)nc3cc(OCCOP(=O)(O)OCCOCCOCCO[C@H]4CC[C@@]5(C)C(=CC[C@H]6[C@@H]7CC[C@H]([C@H](C)CCCC(C)C)[C@@]7(C)CC[C@@H]65)C4)ccc3c2n1CCO` [Example 4]: on human TLR8 (setting [9]), the EC50 was determined as 31.9 µM.
In the case of `CCCCCCCCCCCCCCCC(=O)OC[C@H](COP(=O)(O)OCCOc1ccc2c(c1)nc(N)c1nc(CCCC)n(CCO)c12)OC(=O)CCCCCCCCCCCCCCC` [Example 7], the EC50 on human TLR8 (setting [6]) turned out to be 3.81 µM; on human TLR7 (setting [7]), 14.6 µM.

These data come from patent US11274115B2, “Imidazoquinoline derivatives and their use in therapy” (GLAXOSMITHKLINE BIOLOGICALS SA, priority 2016, dated 2022).
